The values that follow come from patent publication US20090270359A1, “SUBSTITUTED PYRAZOLE DERIVATIVES” (TAKEDA PHARMACEUTICAL COMPANY LIMITED, priority 2007, published 2009).

Where a chain is given by its changes, count along the chain named.

The target in test [1] is T1, wild type androgen receptor (AR) (Homo sapiens, UniProt P10275).
T1 sequence (P10275 1-920): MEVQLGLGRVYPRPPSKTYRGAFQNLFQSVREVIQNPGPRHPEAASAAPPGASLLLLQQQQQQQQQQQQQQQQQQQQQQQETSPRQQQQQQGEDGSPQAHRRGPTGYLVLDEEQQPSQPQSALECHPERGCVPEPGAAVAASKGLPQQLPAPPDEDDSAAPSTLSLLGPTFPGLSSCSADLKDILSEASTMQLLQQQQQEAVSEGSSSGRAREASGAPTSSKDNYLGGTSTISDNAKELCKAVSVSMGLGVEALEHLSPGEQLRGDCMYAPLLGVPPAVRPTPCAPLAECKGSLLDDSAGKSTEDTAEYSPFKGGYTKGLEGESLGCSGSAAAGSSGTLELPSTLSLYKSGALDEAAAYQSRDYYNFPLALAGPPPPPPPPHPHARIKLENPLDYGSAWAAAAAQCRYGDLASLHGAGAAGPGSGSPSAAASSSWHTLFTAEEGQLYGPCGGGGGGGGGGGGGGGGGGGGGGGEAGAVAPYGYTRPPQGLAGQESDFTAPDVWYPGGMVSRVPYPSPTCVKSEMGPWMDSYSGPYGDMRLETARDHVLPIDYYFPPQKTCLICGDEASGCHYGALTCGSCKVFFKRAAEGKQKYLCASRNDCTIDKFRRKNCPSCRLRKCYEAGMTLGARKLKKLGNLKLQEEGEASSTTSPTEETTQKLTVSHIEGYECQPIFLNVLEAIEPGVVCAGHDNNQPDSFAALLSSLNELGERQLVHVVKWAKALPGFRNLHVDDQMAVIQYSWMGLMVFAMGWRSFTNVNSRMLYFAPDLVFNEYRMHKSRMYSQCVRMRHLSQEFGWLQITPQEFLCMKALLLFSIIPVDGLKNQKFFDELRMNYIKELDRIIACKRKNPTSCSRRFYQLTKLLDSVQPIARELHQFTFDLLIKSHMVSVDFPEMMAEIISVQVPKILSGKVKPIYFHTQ
Description: AR-binding inhibition test, wild type (radio-labeled Mibolerone displacement). As to conditions: compound 1 μM; 3 nM radio-labeled Mibolerone; 4° C., 3 hours; dextran/charcoal method; read-out: Inhibitory rate (%) at 1 μM, wild type. The method, then:
(§1) To a solution of wild type or LNCaP type mutant androgen receptor (AR) was added 3 nM radio-labeled Mibolerone and final concentration 1 μM of the compound. The mixture was incubated at 4° C. for 3 hours, and B (Bound) and F (Free) Mibolerones were separated by the dextran/charcoal method. The label count of B was measured and the inhibition rate of the compound was calculated.

Test [2] addresses T2, LNCaP type mutant androgen receptor (AR) (Homo sapiens, UniProt P10275, T878A).
T2 sequence (P10275 1-920 T878A): T1 sequence (P10275 1-920) with T878A
Description: AR-binding inhibition test, LNCaP type (radio-labeled Mibolerone displacement). As to conditions: compound 1 μM; 3 nM radio-labeled Mibolerone; 4° C., 3 hours; dextran/charcoal method; read-out: Inhibitory rate (%) at 1 μM, LNCaP type. The method, then: as §1

For test [3], the system named is Human prostate cancer cells LNCaP-FGC. Kind of test: Prostate specific antigen (PSA) production inhibition test in prostate cancer cells. In kind it is cell-based. As to conditions: compound 1 μM, testosterone 0.1 ng/m, PSA in culture supernatant after 3 days by ELISA, testosterone non-addition group 100%, addition group 0%; for inhibition at 1 µM: Homo sapiens, 72 h, read-out: Inhibitory rate (%) at 1 μM (PSA production suppression rate). The procedure: Human prostate cancer cells LNCaP-FGC were plated in a 24 well plate at 40000 cells/1000 μL/well, and testosterone (final concentration 0.1 ng/m) and the compound (1 μM) were added the next day. The concentration of PSA in the culture supernatant after 3 days from the addition was measured by ELISA, and the PSA production suppression rate was calculated with the testosterone non-addition group as 100% and the testosterone addition group as 0%.

The target in the next test is T3, mutant AR (W741C) (Homo sapiens, UniProt P10275, W742C).
T3 construct: expressed in transfected cells; host or cells: Cos-7
T3 sequence (P10275 1-920 W742C): T1 sequence (P10275 1-920) with W742C
Kind of test: AR transcription inhibition test (luciferase reporter in Cos-7 cells). In kind it is cell-based. As to conditions: compound 1 μM, 0.1 μM DHT, luciferase activity after 24 hr, relative to control (0.1 μM DHT), read-out: Inhibitory rate (%) of mutant AR at 1 μM. The procedure: Cos-7 cells (5,000,000 cells) were inoculated to a flask, and incubated in a culture medium (DMEM+10% Dextran Charcoal (DCC)−Fetal Bovine Serum (FBS) and 2 mM glutamine) for 24 hours. Then, a vector DNA harboring mutant AR (W741C) and a vector DNA containing a luciferase gene bound at the downstream of an androgen responsive promoter were cotransfected by a liposome method. After 4 hr, the medium was changed and, after culture for 3 hr, DHT (dihydrotestosterone) at the final concentration of 0.1 μM and the compound at the final concentration of 1 μM were added. After further culture for 24 hr, the luciferase activity was measured, and the AR transcription inhibitory activity of the compound was examined.

Turning to `Cc1nn(Cc2cccc(C(N)=O)c2)c(C)c1-c1ccc(C#N)c(Cl)c1` [Example 68, 3-{[4-(3-chloro-4-cyanophenyl)-3,5-dimethyl-1H-pyrazol-1-yl]methyl}benzamide], the inhibition at 1 µM in test [1] was 76%; in test [2] it was 82%; in test [3], 95.4%; at mutant AR (W741C) it was 31%.
For `Cc1nn(Cc2ccc(C(N)=O)cc2)c(C)c1-c1ccc(C#N)c(Cl)c1` [Example 69, 4-{[4-(3-chloro-4-cyanophenyl)-3,5-dimethyl-1H-pyrazol-1-yl]methyl}benzamide] the same measures were 88%, 80%, 107% and 19%.
For the molecule `Cc1nn(Cc2ccc(F)c(C(N)=O)c2)c(C)c1-c1ccc(C#N)c(Cl)c1` [Example 77, 5-{[4-(3-chloro-4-cyanophenyl)-3,5-dimethyl-1H-pyrazol-1-yl]methyl}-2-fluorobenzamide], the inhibition at 1 µM was found to be 78% in test [1], 68% in test [2], 102% in test [3] and 92% at mutant AR (W741C).
Taken in the same sequence, the figures for `Cc1nn(Cc2ccc(C(N)=O)nc2)c(C)c1-c1ccc(C#N)c(Cl)c1` [Example 105, 5-{[4-(3-chloro-4-cyanophenyl)-3,5-dimethyl-1H-pyrazol-1-yl]methyl}pyridine-2-carboxamide] were 66%, 75%, 109% and 32%.
Taken in the same sequence, the figures for `CNC(=O)c1ccc(Cn2nc(C)c(-c3ccc(C#N)c(Cl)c3)c2C)cn1` [Example 106, 5-{[4-(3-chloro-4-cyanophenyl)-3,5-dimethyl-1H-pyrazol-1-yl]methyl}-N-methylpyridine-2-carboxamide] were 49%, 79%, 110% and 38%.
For `Cc1nn(Cc2ccc(C(=O)NCC(C)(C)O)cc2)c(C)c1-c1ccc(C#N)c(Cl)c1` [Example 282, 4-{[4-(3-chloro-4-cyanophenyl)-3,5-dimethyl-1H-pyrazol-1-yl]methyl}-N-(2-hydroxy-2-methylpropyl)benzamide] the same measures were 58%, 54%, 80% and 28%.
As for `Cc1nnc(-c2ccc(Cn3nc(C)c(-c4ccc(C#N)c(Cl)c4)c3C)cc2)o1` [Example 286, 2-chloro-4-{3,5-dimethyl-1-[4-(5-methyl-1,3,4-oxadiazol-2-yl)benzyl]-1H-pyrazol-4-yl}benzonitrile], the inhibition at 1 µM came to 85% in test [1], 89% in test [2], 107% in test [3] and 67% on mutant AR (W741C).
For `Cc1nn(Cc2ccc(C(=O)NC3CC3)cc2)c(C)c1-c1ccc(C#N)c(Cl)c1` [Example 304, 4-{[4-(3-chloro-4-cyanophenyl)-3,5-dimethyl-1H-pyrazol-1-yl]methyl}-N-cyclopropylbenzamide] the same measures were 74%, 82%, 98.3% and 36%.
Taken in the same sequence, the figures for `Cc1nn(Cc2ccc(C(=O)NC3CC3)nc2)c(C)c1-c1ccc(C#N)c(Cl)c1` [Example 310, 5-{[4-(3-chloro-4-cyanophenyl)-3,5-dimethyl-1H-pyrazol-1-yl]methyl}-N-cyclopropylpyridine-2-carboxamide] were 70%, 73%, 106% and 72%.
As to `CC(O)(CS(=O)(=O)c1ccc(F)cc1)C(=O)Nc1ccc(C#N)c(C(F)(F)F)c1` (stereo not shown) [bicartamide, reference compound], the “Inhibitory rate (%) at 1 μM (PSA production suppression rate)” value in test [3] is 75.0%.
